Reference: US20060069132A1, “Azolecarboxamide herbicides” (priority 2004, published 2006)
Where two headings read alike, the source gives them in different places.

What was measured:
cocklebur = assay: Test B pre-/postemergence herbicide test; type: in vivo, Xanthium strumarium
Outline: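 Visual rating, 0 (no effect) to 100 (complete control), versus untreated controls after 13–15 d in greenhouse. Pre- and postemergence applications (postemergence plants 2–18 cm, 1–4 leaves); flooded paddy arm at 2-leaf stage. Compounds in non-phytotoxic solvent plus surfactant.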

woolly cupgrass = assay: Test C pre-/postemergence herbicide test; type: in vivo, Eriochloa villosa
Description: (§1) Seeds of plant species selected from bermudagrass (Cynodon dactylon (L.) Pers.), Surinam grass (Urochloa decumbens (Staph) R. D. Webster, previously named Brachiaria decumbens Stapf), cocklebur (Xanthium strumarium L.), corn (Zea mays L.), large crabgrass (Digitaria sanguinalis (L.) Scop.), woolly cupgrass (Eriochloa villosa (Thunb.) Kunth), giant foxtail (Setaria faberi Herrm.), goosegrass (Eleusine indica (L.) Gaertn.), johnsongrass (Sorghum halepense (L.) Pers.), kochia (Kochia scoparia (L.) Schrad.), lambsquarters (Chenopodium album L.), morningglory (Ipomoea coccinea L.), eastern black nightshade (Solanum ptycanthum Dunal), yellow nutsedge (Cyperus esculentus L.), pigweed (Amaranthus retroflexus L.), common ragweed (Ambrosia elatior L.), soybean (Glycine max (L.) Merr.), common (oilseed) sunflower (Helianthus annuus L.) and velvetleaf (Abutilon theophrasti Medik.) were planted and treated preemergence with test chemicals formulated in a non-phytotoxic solvent mixture which included a surfactant.
(§2) At the same time, plants selected from these crop and weed species and also winter barley (Hordeum vulgare L.), blackgrass (Alopecurus myosuroides Huds.), canarygrass (Phalaris minor Retz.), chickweed (Stellaria media (L.) Vill.), downy bromegrass (Bromus tectorum L.), green foxtail (Setaria viridis (L.) Beauv.), Italian ryegrass (Lolium multiflorum Lam.), wheat (Triticum aestivum L.), wild oat (Avenafatua L.) and windgrass (Apera spica-venti (L.) Beauv.) were treated with postemergence applications of some of the test chemicals formulated in the same manner. Plants ranged in height from 2 to 18 cm (1- to 4-leaf stage) for postemergence treatments. Plant species in the flooded paddy test consisted of rice (Oryza sativa), smallflower umbrella sedge (Cyperus difformis L.), ducksalad (Heteranthera limosa (Sw.) Willd.) and barnyardgrass (Echinochloa crus-galli (L.) Beauv.) grown to the 2-leaf stage for testing. Treated plants and controls were maintained in a greenhouse for 12 to 14 days, after which time all species were compared to controls and visually evaluated. Plant response ratings, summarized in Table C, are based on a scale of 0 to 100 where 0 is no effect and 100 is complete control. A dash (-) response means no test result.

pigweed = assay: Test C pre-/postemergence herbicide test; type: in vivo, Amaranthus retroflexus
Description: as §1, §2

lambsquarters [1] = assay: Test B pre-/postemergence herbicide test; type: in vivo, Chenopodium album
Outline: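 Flooded paddy rice and barnyardgrass were treated at the 2-leaf stage; upland plantings received compound either on sown seed or on 1- to 4-leaf seedlings. All were kept 13–15 days in a greenhouse and scored visually, 0–100, relative to untreated plants.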

Surinam grass = assay: Test C pre-/postemergence herbicide test; type: in vivo, Urochloa decumbens
Description: as §1, §2

lambsquarters [2] = assay: Test C pre-/postemergence herbicide test; type: in vivo, Chenopodium album
Description: as §1, §2

johnsongrass = assay: Test C pre-/postemergence herbicide test; type: in vivo, Sorghum halepense
Description: as §1, §2

[3] = Postemergence, 500 g ai/ha, visual rating after 13 to 15 days, scale 0 (no effect) to 100 (complete control)
[4] = Preemergence, 500 g ai/ha, scale 0 to 100
[5] = postemergence, 125 g ai/ha, visual rating, scale 0 (no effect) to 100 (complete control)
[6] = preemergence, 125 g ai/ha, 0 to 100 scale, 0 is no effect, 100 is complete control
[7] = 125 g ai/ha, scale 0 (no effect) to 100 (complete control), visual, 12 to 14 days, preemergence
[8] = 250 g ai/ha, scale 0 to 100 (0 no effect, 100 complete control), visual, 12 to 14 days, preemergence
[9] = Preemergence, 500 g ai/ha, scale 0 to 100, 0 no effect, 100 complete control
[10] = 125 g ai/ha, 0 is no effect, 100 is complete control, preemergence
[11] = 125 g ai/ha, 0 = no effect, 100 = complete control, preemergence
[12] = 500 g ai/ha, visual rating, 0 = no effect, 100 = complete control, preemergence
[13] = 62 g ai/ha, preemergence, scale 0 to 100
[14] = 250 g ai/ha, scale 0-100, preemergence
[15] = 500 g ai/ha, scale 0 to 100 (0 no effect, 100 complete control), visual, 12 to 14 days, preemergence

Compound: CCCn1nc(C(C)(C)C)cc1C(=O)Nc1cccc(C(=O)NCC)c1 [Compound 57]
- Plant response rating, Cocklebur (cocklebur; [3]): 60
- Cocklebur plant response rating (cocklebur; [4]): 10
- Cocklebur plant response rating (cocklebur; [5]): 30
- Plant response rating, Cocklebur (cocklebur; [6]): 0
- Plant response rating (0 = no effect, 100 = complete control), Cupgrass, Woolly (woolly cupgrass; 62 g ai/ha, preemergence): 0
- Plant response rating, Cupgrass, Woolly (woolly cupgrass; [7]): 0
- Plant response rating, Cupgrass, Woolly (woolly cupgrass; [8]): 25
- Cupgrass, Woolly plant response rating (woolly cupgrass; [9]): 70
- Plant response rating (0 = no effect, 100 = complete control), Pigweed (pigweed; 62 g ai/ha, preemergence): 100
- Plant response rating, Pigweed (pigweed; [7]): 100
- Plant response rating, Pigweed (pigweed; [8]): 100
- Pigweed plant response rating (pigweed; [9]): 100
- Plant response rating, Lambsquarters (lambsquarters [1]; [3]): 90
- Lambsquarters plant response rating (lambsquarters [1]; [4]): 100
- Lambsquarters plant response rating (lambsquarters [1]; [5]): 70
- Plant response rating, Lambsquarters (lambsquarters [1]; [6]): 100
- Plant response rating (0 = no effect, 100 = complete control), Surinam Grass (Surinam grass; 62 g ai/ha, preemergence): 0
- Plant response rating, Surinam Grass (Surinam grass; [7]): 15
- Plant response rating, Surinam Grass (Surinam grass; [8]): 35
- Surinam Grass plant response rating (Surinam grass; [9]): 75
- Plant response rating (0 = no effect, 100 = complete control), Lambsquarters (lambsquarters [2]; 62 g ai/ha, preemergence): 100
- Plant response rating, Lambsquarters (lambsquarters [2]; [7]): 100
- Plant response rating, Lambsquarters (lambsquarters [2]; [8]): 100
- Lambsquarters plant response rating (lambsquarters [2]; [9]): 100
- Plant response rating (0 = no effect, 100 = complete control), Johnsongrass (johnsongrass; 62 g ai/ha, preemergence): 20
- Plant response rating, Johnsongrass (johnsongrass; [7]): 65
- Plant response rating, Johnsongrass (johnsongrass; [8]): 80
- Johnsongrass plant response rating (johnsongrass; [9]): 85

Compound: CCNC(=O)c1ccc(F)c(NC(=O)C2CN(C(C)(C)C)N=C2CC)c1 (stereo not drawn) [Compound 336, 1-(1,1-dimethylethyl)-3-ethyl-N-[5-[(ethylamino)carbonyl]-2-fluorophenyl]-4,5-dihydro-1H-pyrazole-4-carboxamide]
- Plant response rating (0 to 100 scale), Cocklebur (cocklebur; [10]): 10
- pest or weed control at 125 g/ha (cocklebur; Xanthium strumarium, post-emergence, 125 g ai/ha, visual rating, scale 0 (no effect) to 100 (complete control), read-out: Cocklebur plant response rating): 0%
- pest or weed control at 500 g/ha (cocklebur; Xanthium strumarium, post-emergence, postemergence, 500 g ai/ha, scale 0 to 100, 0 is no effect, 100 is complete control, read-out: Cocklebur plant response rating): 50%
- pest or weed control at 500 g/ha (cocklebur; Xanthium strumarium, pre-emergence, 500 g ai/ha, visual rating, 0 = no effect, 100 = complete control, read-out: Plant response rating, Cocklebur): 40%
- pest or weed control at 62 g/ha (woolly cupgrass; Eriochloa villosa, pre-emergence, 312 h, 62 g ai/ha, preemergence, scale 0 to 100, read-out: Plant response rating, Cupgrass, Woolly): 5%
- pest or weed control at 125 g/ha (woolly cupgrass; Eriochloa villosa, pre-emergence, 312 h, 125 g ai/ha, scale 0 (no effect) to 100 (complete control), visual, 12 to 14 days, read-out: Plant response rating, Cupgrass, Woolly): 10%
- pest or weed control at 250 g/ha (woolly cupgrass; Eriochloa villosa, pre-emergence, 312 h, 250 g ai/ha, scale 0-100, read-out: Plant response rating, Cupgrass, Woolly): 60%
- pest or weed control at 500 g/ha (woolly cupgrass; Eriochloa villosa, pre-emergence, 312 h, 500 g ai/ha, scale 0 to 100 (0 no effect, 100 complete control), visual, 12 to 14 days, read-out: Plant response rating, Cupgrass, Woolly): 85%
- pest or weed control at 62 g/ha (pigweed; Amaranthus retroflexus, pre-emergence, 62 g ai/ha, preemergence, scale 0 to 100, read-out: Plant response rating, Pigweed): 100%
- pest or weed control at 125 g/ha (pigweed; Amaranthus retroflexus, pre-emergence, 125 g ai/ha, scale 0 (no effect) to 100 (complete control), visual, 12 to 14 days, read-out: Plant response rating, Pigweed): 100%
- pest or weed control at 250 g/ha (pigweed; Amaranthus retroflexus, pre-emergence, 250 g ai/ha, scale 0-100, read-out: Plant response rating, Pigweed): 100%
- pest or weed control at 500 g/ha (pigweed; Amaranthus retroflexus, pre-emergence, 500 g ai/ha, scale 0 to 100 (0 no effect, 100 complete control), visual, 12 to 14 days, read-out: Plant response rating, Pigweed): 100%
- Plant response rating (0 to 100 scale), Lambsquarters (lambsquarters [1]; [10]): 90
- pest or weed control at 125 g/ha (lambsquarters [1]; Chenopodium album, post-emergence, 336 h, 125 g ai/ha, visual rating, scale 0 (no effect) to 100 (complete control), read-out: Lambsquarters plant response rating): 60%
- pest or weed control at 500 g/ha (lambsquarters [1]; Chenopodium album, post-emergence, 336 h, postemergence, 500 g ai/ha, scale 0 to 100, 0 is no effect, 100 is complete control, read-out: Lambsquarters plant response rating): 90%
- pest or weed control at 500 g/ha (lambsquarters [1]; Chenopodium album, pre-emergence, 336 h, 500 g ai/ha, visual rating, 0 = no effect, 100 = complete control, read-out: Plant response rating, Lambsquarters): 100%
- pest or weed control at 62 g/ha (Surinam grass; Urochloa decumbens, pre-emergence, 312 h, 62 g ai/ha, preemergence, scale 0 to 100, read-out: Plant response rating, Surinam Grass): 50%
- pest or weed control at 250 g/ha (Surinam grass; Urochloa decumbens, pre-emergence, 312 h, 250 g ai/ha, scale 0-100, read-out: Plant response rating, Surinam Grass): 100%
- pest or weed control at 500 g/ha (Surinam grass; Urochloa decumbens, pre-emergence, 312 h, 500 g ai/ha, scale 0 to 100 (0 no effect, 100 complete control), visual, 12 to 14 days, read-out: Plant response rating, Surinam Grass): 100%
- pest or weed control at 62 g/ha (lambsquarters [2]; Chenopodium album, pre-emergence, 62 g ai/ha, preemergence, scale 0 to 100, read-out: Plant response rating, Lambsquarters): 100%
- pest or weed control at 125 g/ha (lambsquarters [2]; Chenopodium album, pre-emergence, 125 g ai/ha, scale 0 (no effect) to 100 (complete control), visual, 12 to 14 days, read-out: Plant response rating, Lambsquarters): 100%
- pest or weed control at 250 g/ha (lambsquarters [2]; Chenopodium album, pre-emergence, 250 g ai/ha, scale 0-100, read-out: Plant response rating, Lambsquarters): 100%
- pest or weed control at 500 g/ha (lambsquarters [2]; Chenopodium album, pre-emergence, 500 g ai/ha, scale 0 to 100 (0 no effect, 100 complete control), visual, 12 to 14 days, read-out: Plant response rating, Lambsquarters): 100%
- pest or weed control at 62 g/ha (johnsongrass; Sorghum halepense, pre-emergence, 62 g ai/ha, preemergence, scale 0 to 100, read-out: Plant response rating, Johnsongrass): 80%
- pest or weed control at 125 g/ha (johnsongrass; Sorghum halepense, pre-emergence, 125 g ai/ha, scale 0 (no effect) to 100 (complete control), visual, 12 to 14 days, read-out: Plant response rating, Johnsongrass): 95%
- pest or weed control at 250 g/ha (johnsongrass; Sorghum halepense, pre-emergence, 250 g ai/ha, scale 0-100, read-out: Plant response rating, Johnsongrass): 100%
- pest or weed control at 500 g/ha (johnsongrass; Sorghum halepense, pre-emergence, 500 g ai/ha, scale 0 to 100 (0 no effect, 100 complete control), visual, 12 to 14 days, read-out: Plant response rating, Johnsongrass): 100%

Compound: CCn1nc(C(C)(C)C)cc1C(=O)Nc1cc(C(=O)N2CCCC2)ccc1F [Compound 242]
- Cocklebur plant response rating (0 to 100 scale) (cocklebur; [11]): 10
- Plant response rating, Cocklebur (cocklebur; [12]): 40
- Cocklebur plant response rating (cocklebur; [5]): 40
- Cocklebur plant response rating (cocklebur; postemergence, 500 g ai/ha, visual rating, scale 0 (no effect) to 100 (complete control)): 90
- Plant response rating, Cupgrass, Woolly (woolly cupgrass; [13]): 75
- Plant response rating, Cupgrass, Woolly (woolly cupgrass; [7]): 80
- Plant response rating, Cupgrass, Woolly (woolly cupgrass; [14]): 95
- Plant response rating, Cupgrass, Woolly (woolly cupgrass; [15]): 100
- Plant response rating, Pigweed (pigweed; [13]): 100
- Plant response rating, Pigweed (pigweed; [7]): 100
- Plant response rating, Pigweed (pigweed; [14]): 100
- Plant response rating, Pigweed (pigweed; [15]): 100
- Lambsquarters plant response rating (0 to 100 scale) (lambsquarters [1]; [11]): 100
- Plant response rating, Lambsquarters (lambsquarters [1]; [12]): 100
- Lambsquarters plant response rating (lambsquarters [1]; [5]): 90
- Lambsquarters plant response rating (lambsquarters [1]; postemergence, 500 g ai/ha, scale 0 to 100, 0 is no effect, 100 is complete control): 90
- Plant response rating, Surinam Grass (Surinam grass; [13]): 85
- Plant response rating, Surinam Grass (Surinam grass; [14]): 95
- Plant response rating, Surinam Grass (Surinam grass; [15]): 100
- Plant response rating, Johnsongrass (johnsongrass; [13]): 65
- Plant response rating, Johnsongrass (johnsongrass; [7]): 95
- Plant response rating, Johnsongrass (johnsongrass; [14]): 100
- Plant response rating, Johnsongrass (johnsongrass; [15]): 100
